In this experiment the test system is type 2 diabetic mouse (db/db) model. Put plainly: Efficacy study in db/db mice at 10 nM/kg dose (blood glucose, body weight, food intake). The conditions noted are these: for Cumulative food Intake (g) 0-48 hr. vs. Baseline, Mean / Cumulative food Intake (g) 0-96 hr. vs. Baseline, Mean / Delta Blood Glucose (mM) Mean / Body Wt. Change (%) 48 hr. vs. Baseline, Mean / Body Wt. Change (%) 96 hr. vs. Baseline, Mean: 10 nM/kg s.c. single dose. The experiment is classed as in vivo. The method, then: The effect of compounds of present invention on blood glucose, food intake and body weight was studied in mice. This study was performed in a type 2 diabetic mouse (db/db) model. […] Baseline blood glucose was measured from all the animals. […] All the animals were administered with test items subcutaneously. […] Delta blood glucose (mM) was calculated.

[1] abbreviates: Study 4, db/db mice, 0 hr (baseline).
[2] abbreviates: db/db mice, 10 nM/kg s.c., vs diabetic control.

Marks after values point to notes of the source that are not given here. Non-standard residues stand in square brackets, D forms with d. No end group written: not given here. Moiety A = not defined here; Nva = CCC[C@H](N)C(=O)O; Aib = CC(C)(N)C(=O)O

On to `CC[C@H](NC(=O)[C@@H](NC(=O)[C@H](CO)NC(=O)[C@H](Cc1ccc(O)cc1)NC(=O)[C@H](CC(=O)O)NC(=O)[C@H](CO)NC(=O)[C@@H](NC(=O)[C@H](Cc1ccccc1)NC(=O)[C@@H](NC(=O)CNC(=O)[C@H](CCC(=O)O)NC(=O)C(C)(C)NC(=O)[C@@H](N)Cc1ccc(O)cc1)[C@@H](C)O)[C@@H](C)O)[C@@H](C)CC)C(=O)N[C@@H](CC(C)C)C(=O)N[C@@H](CC(=O)O)C(=O)N[C@@H](CCCCN)C(=O)N[C@H](C(=O)N[C@@H](C)C(=O)N[C@@H](CCC(N)=O)C(=O)N[C@@H](CCCCNC(=O)COCCOCCNC(=O)C(C)(C)NC(=O)CC[C@H](NC(=O)CCCCCCCCCCCCCCCCCCC(=O)O)C(=O)O)C(=O)N[C@@H](C)C(=O)N[C@@H](Cc1ccccc1)C(=O)N[C@H](C(=O)N[C@@H](CCC(N)=O)C(=O)N[C@@H](Cc1c[nH]c2ccccc12)C(=O)N[C@@H](CC(C)C)C(=O)N[C@H](C(=O)N[C@@H](C)C(=O)NCC(=O)NCC(=O)N1CCC[C@H]1C(=O)N[C@@H](CO)C(=O)N[C@@H](CO)C(=O)NCC(=O)N[C@@H](C)C(=O)N1CCC[C@H]1C(=O)N1CCC[C@H]1C(=O)N1CCC[C@H]1C(=O)N[C@@H](CO)C(N)=O)[C@@H](C)CC)C(C)C)[C@@H](C)CC` [Compound 10], for which, where the note is “Study 4, db/db mice”, the “Cumulative food Intake (g) 0-48 hr. vs. Baseline, Mean” value is 8.2*** g. In addition, the “Cumulative food Intake (g) 0-96 hr. vs. Baseline, Mean” value (Study 4, db/db mice) is on record as 20.5** g. Also, the “Delta Blood Glucose (mM) Mean” value runs as follows: under setting [1], 0 mM; (Study 4, db/db mice, 4 hr) −12.1*** mM; (Study 4, db/db mice, 8 hr) −13.6*** mM; (Study 4, db/db mice, 12 hr) −14.7*** mM; (Study 4, db/db mice, 24 hr) −15.6*** mM; (Study 4, db/db mice, 48 hr) −4.0** mM. The “Delta Blood Glucose (mM) Mean” value is 2.3 mM (Study 4, db/db mice, 72 hr) and 1.7 mM (Study 4, db/db mice, 96 hr). Besides, for the setting “Study 4, db/db mice, 48 hr”, the “Body Wt. Change (%) 48 hr. vs. Baseline, Mean” value is reported as −4.5*** %. In addition, the “Body Wt. Change (%) 96 hr. vs. Baseline, Mean” value (Study 4, db/db mice, 96 hr) is listed as −3.1*** %.

With `CCCC[C@H](NC(=O)[C@@H](NC(=O)[C@H](CO)NC(=O)[C@H](Cc1ccc(O)cc1)NC(=O)[C@H](CC(=O)O)NC(=O)[C@H](CO)NC(=O)[C@@H](NC(=O)[C@H](Cc1ccccc1)NC(=O)[C@@H](NC(=O)CNC(=O)[C@H](CCC(=O)O)NC(=O)C(C)(C)NC(=O)[C@@H](N)Cc1ccc(O)cc1)[C@@H](C)O)[C@@H](C)O)[C@@H](C)CC)C(=O)N[C@@H](CC(C)C)C(=O)N[C@@H](CC(=O)O)C(=O)N[C@@H](CCCCN)C(=O)N[C@H](C(=O)N[C@@H](C)C(=O)N[C@@H](CCC(N)=O)C(=O)N[C@@H](CCCCNC(=O)COCCOCCNC(=O)C(C)(C)NC(=O)CC[C@H](NC(=O)CCCCCCCCCCCCCCCCCCC(=O)O)C(=O)O)C(=O)N[C@@H](C)C(=O)N[C@@H](Cc1ccccc1)C(=O)N[C@H](C(=O)N[C@@H](CCC(N)=O)C(=O)N[C@@H](Cc1c[nH]c2ccccc12)C(=O)N[C@@H](CC(C)C)C(=O)N[C@H](C(=O)N[C@@H](C)C(=O)NCC(=O)NCC(=O)N1CCC[C@H]1C(=O)N[C@@H](CO)C(=O)N[C@@H](CO)C(=O)NCC(=O)N[C@@H](C)C(=O)N1CCC[C@H]1C(=O)N1CCC[C@H]1C(=O)N1CCC[C@H]1C(=O)N[C@@H](CO)C(N)=O)[C@@H](C)CC)C(C)C)[C@@H](C)CC` [Compound 11], the “Cumulative food Intake (g) 0-48 hr. vs. Baseline, Mean” value (Study 4, db/db mice) is reported as 8.2*** g. For the same molecule, under “Study 4, db/db mice”, the “Cumulative food Intake (g) 0-96 hr. vs. Baseline, Mean” value is listed as 21.7* g. In addition, the “Delta Blood Glucose (mM) Mean” value under setting [1] is 0 mM; the “Delta Blood Glucose (mM) Mean” value (Study 4, db/db mice, 4 hr) is −13.3*** mM; the “Delta Blood Glucose (mM) Mean” value (Study 4, db/db mice, 8 hr) is −13.3*** mM; the “Delta Blood Glucose (mM) Mean” value (Study 4, db/db mice, 12 hr) is −13.6*** mM; the “Delta Blood Glucose (mM) Mean” value (Study 4, db/db mice, 24 hr) was −15.4*** mM; the “Delta Blood Glucose (mM) Mean” value (Study 4, db/db mice, 48 hr) is −6.1*** mM. Moreover, the “Delta Blood Glucose (mM) Mean” value runs as follows: (Study 4, db/db mice, 72 hr) 3.6 mM; (Study 4, db/db mice, 96 hr) 6 mM. In addition, the “Body Wt. Change (%) 48 hr. vs. Baseline, Mean” value (Study 4, db/db mice, 48 hr) is −4.7*** %. Further, the “Body Wt. Change (%) 96 hr. vs. Baseline, Mean” value (Study 4, db/db mice, 96 hr) was −2.0*** %.

With `CCC[C@H](NC(=O)[C@@H](NC(=O)[C@H](CO)NC(=O)[C@H](Cc1ccc(O)cc1)NC(=O)[C@H](CC(=O)O)NC(=O)[C@H](CO)NC(=O)[C@@H](NC(=O)[C@H](Cc1ccccc1)NC(=O)[C@@H](NC(=O)CNC(=O)[C@H](CCC(=O)O)NC(=O)C(C)(C)NC(=O)[C@@H](N)Cc1ccc(O)cc1)[C@@H](C)O)[C@@H](C)O)[C@@H](C)CC)C(=O)N[C@@H](CC(C)C)C(=O)N[C@@H](CC(=O)O)C(=O)N[C@@H](CCCCN)C(=O)N[C@H](C(=O)N[C@@H](C)C(=O)N[C@@H](CCC(N)=O)C(=O)N[C@@H](CCCCNC(=O)COCCOCCNC(=O)COCCOCCNC(=O)CC[C@H](NC(=O)CCCCCCCCCCCCCCCCCCC(=O)O)C(=O)O)C(=O)N[C@@H](C)C(=O)N[C@@H](Cc1ccccc1)C(=O)N[C@H](C(=O)N[C@@H](CCC(N)=O)C(=O)N[C@@H](Cc1c[nH]c2ccccc12)C(=O)N[C@@H](CC(C)C)C(=O)N[C@H](C(=O)N[C@@H](C)C(=O)NCC(=O)NCC(=O)N1CCC[C@H]1C(=O)N[C@@H](CO)C(=O)N[C@@H](CO)C(=O)NCC(=O)N[C@@H](C)C(=O)N1CCC[C@H]1C(=O)N1CCC[C@H]1C(=O)N1CCC[C@H]1C(=O)N[C@@H](CO)C(N)=O)[C@@H](C)CC)C(C)C)[C@@H](C)CC` [Compound 6], the “Cumulative food Intake (g) 0-48 hr. vs. Baseline, Mean” value (Study 2, db/db mice) is on record as 4.2*** g. Besides, the “Cumulative food Intake (g) 0-96 hr. vs. Baseline, Mean” value (Study 2, db/db mice) is given as 16.0*** g. For the same molecule, the “Delta Blood Glucose (mM) Mean” value is, setting by setting: (Study 2, db/db mice, 0 hr (baseline)) 0 mM; (Study 2, db/db mice, 4 hr) −15.6*** mM; (Study 2, db/db mice, 8 hr) −15.9*** mM; (Study 2, db/db mice, 12 hr) −16.3*** mM; (Study 2, db/db mice, 24 hr) −11.8*** mM; (Study 2, db/db mice, 48 hr) −9.5*** mM. For the same molecule, the “Delta Blood Glucose (mM) Mean” value is −2.6* mM (Study 2, db/db mice, 72 hr) and -1.6 mM (Study 2, db/db mice, 96 hr). In addition, the “Body Wt. Change (%) 48 hr. vs. Baseline, Mean” value (Study 2, db/db mice, 48 hr) is on record as −5.5*** %. In addition, for the setting “Study 2, db/db mice, 96 hr”, the “Body Wt. Change (%) 96 hr. vs. Baseline, Mean” value was −2.2** %. Further, the “blood glucose reduction” value under setting [2] is recorded as “statistically significant blood glucose reduction upto 96 hr post treatment”. For the same molecule, the “body weight reduction” value under setting [2] is “statistically significant reduction in food intake and body weight”. Also, the “reduction in food consumption” value under setting [2] is reported as “statistically significant reduction in food intake”.

With “Compound 9: SEQ ID 09 polypeptide (C-terminal Arg, free acid), Lys20 acylated with Moiety A (Y[Aib]EGTFTSDYSI[Nva]LDKIAQK(Moiety A)AFVQWLIAGGPSSGAPPPSR-OH; reading uncertain)”, the “Cumulative food Intake (g) 0-48 hr. vs. Baseline, Mean” value (Study 3, db/db mice) is given as 4.2*** g. Further, the “Cumulative food Intake (g) 0-96 hr. vs. Baseline, Mean” value (Study 3, db/db mice) is 16.7*** g. For the same molecule, the “Delta Blood Glucose (mM) Mean” value is, setting by setting: (Study 3, db/db mice, 0 hr (baseline)) 0 mM; (Study 3, db/db mice, 4 hr) −13.1*** mM; (Study 3, db/db mice, 8 hr) −12.7*** mM; (Study 3, db/db mice, 12 hr) −12.1*** mM; (Study 3, db/db mice, 24 hr) −8.7*** mM; (Study 3, db/db mice, 48 hr) −7.1*** mM. The “Delta Blood Glucose (mM) Mean” value (Study 3, db/db mice, 72 hr) is reported as −5.6* mM and the “Delta Blood Glucose (mM) Mean” value (Study 3, db/db mice, 96 hr) was determined as 0 mM. The “Body Wt. Change (%) 48 hr. vs. Baseline, Mean” value (Study 3, db/db mice, 48 hr) was −3.4*** %. In addition, the “Body Wt. Change (%) 96 hr. vs. Baseline, Mean” value (Study 3, db/db mice, 96 hr) is −3.8*** %.

Take “Compound 12: SEQ ID 12 polypeptide, Lys20 acylated with Moiety A (Y[Aib]EGTFTSDYSIILDKIAQK(Moiety A)AFVQWLIAGGPSSGAPPPS-NH2; reading uncertain)”: the “Cumulative food Intake (g) 0-48 hr. vs. Baseline, Mean” value (Study 4, db/db mice) is on record as 10.2* g. Also, where the note is “Study 4, db/db mice”, the “Cumulative food Intake (g) 0-96 hr. vs. Baseline, Mean” value is reported as 26.0 g. In addition, the “Delta Blood Glucose (mM) Mean” value is reported as 0 mM under setting [1]; −14.6*** mM (Study 4, db/db mice, 4 hr); −14.8*** mM (Study 4, db/db mice, 8 hr); −14.9*** mM (Study 4, db/db mice, 12 hr); −4.8** mM (Study 4, db/db mice, 24 hr); 2.5 mM (Study 4, db/db mice, 48 hr). For the same molecule, the “Delta Blood Glucose (mM) Mean” value worked out at 3.9 mM (Study 4, db/db mice, 72 hr) and 6.8 mM (Study 4, db/db mice, 96 hr). Moreover, the “Body Wt. Change (%) 48 hr. vs. Baseline, Mean” value (Study 4, db/db mice, 48 hr) is recorded as −3.0*** %. Also, the “Body Wt. Change (%) 96 hr. vs. Baseline, Mean” value (Study 4, db/db mice, 96 hr) is −0.4%.

These data come from US12622948B2 (SUN PHARMACEUTICAL INDUSTRIES LIMITED, priority 2020, dated 2026).
